Experimental data as given in paper PMC10951066, “The self-reactive FVIII T cell repertoire in healthy individuals relies on a short set of epitopes and public clonotypes” (Frontiers in Immunology, 2024).

Legend:
HLA-DRB1*0701 = HLA-DRB1*0701 (Homo sapiens, UniProt P01903+P01911, A100R/A102G/A103Q/D57E/D86V/E43K/F76Y/K127E/L162R/M171V/P40G/Q125H/Q99D/R33Q/R42Y/R54Q/S133A/S66F/T210M/V115G/Y107V/Y59L/Y89S); assay: Peptide-MHCII competition binding assay; conditions: competition ELISA, pH 5.9, peptide 90.000nM – 0.9nM, HLA-DRB1 30 nM, biotinylated peptide 15nM, duplicate wells; ratios below 10 = good binding; reference peptide PVDLHAFLSQAVFS
Experimental: (§1) Quantitative peptide-MHCII competition binding assays were carried out to determine binding avidities of the 18 20-mer FVIII peptides to 6 HLA-DRB1. Data are presented as ratio between reference peptide IC50/FVIII-peptide IC50 tested. Briefly, non-biotinylated FVIII peptides have been diluted at a concentration of 20 mM in DMSO. 10-µl aliquots of serially diluted (90.000nM – 0.9nM in n-Octyl b-D-Glucopyranoside, 2.5 mg/ml in 1x phosphate buffer, pH 5.9) of non-biotinylated FVIII peptides, were added to duplicate wells of 96-well polypropylene plates. Serially diluted non-FVIII reference peptides known to bind to the specific HLA-DRB1 were added to separate wells as positive controls. Next, the biotinylated peptide at a concentration of 2mM was use to prepare 1000-fold pre-dilution to reach a final concentration of 15nM. The HLA-DRB1 proteins were diluted to 30 nM in n-Octyl β-D-Glucopyranoside, 2.5 mg/ml in 1x phosphate buffer, pH 5.9. […] SA-HRP (diluted 5000x in 1xPBS 0.1% Tween20) was added to each well. The plates were covered and incubated at room temperature for 60 min […] and washed. TMB (100 μl/well) was then added, and the plates were incubated at room temperature for 15-30 min. ELISA stopping solution (0.5M H2SO4) was added and then read on a FLUOstar OPTIMA fluorometer. Sigmoidal binding curves were simulated and IC50 values calculated for the FVIII peptides, based on their competition with the reference peptides for each HLA-DRB1. Data were reported as the ratio between the values of the tested peptide and of the reference peptide. Ratios below 10 correspond to good biding affinity.

[1] = system: CD4 T cells from healthy donors; assay: HLA restriction and FVIII specificity IFN-γ ELISPOT of T cell lines raised with the pool of 18 peptides (four donors); format: cell-based, human; set-up: key to Protein specificty: +: positive T cell responses to both the full-length FVIII protein (protein specificity); conditions: for intensity (%): four donors, 87 specific T cell lines in total; for Responding donors (%): four healthy donors, T cell lines amplified with pool of 18 FVIII peptides; for HLA restriction (%) DP / HLA restriction (%) DR: percentage of restricted T cell lines, inhibition higher than 50% of ELISPOT count; for HLA restriction (%) DP: anti-HLA-DP (B7/21) 10 μg/ml; for HLA restriction (%) DR: anti-HLA-DR (L243) 10 μg/ml; for Protein specificty: recognition of rFVIII loaded on autologous DCs by peptide-specific T cell lines
Experimental: T cells were incubated with autologous DCs alone (control) or with DCs incubated with rFVIII (0.2 µM), ovalbumin (3 µM), and KLH (1 µM) or PBMCs for FVIII peptides (10 µg/ml) in MultiScreen 96-well plates (Merck Millipore) previously coated with 2.5 µg/mL of anti-human IFN-γ monoclonal antibody (mAb; 1-D1K; Mabtech). The T cell lines and APCs were plated at equal number for both stimulated and unstimulated control conditions. […] The spot number was determined by using the ELISPOT Reader System (Autoimmun Diagnostika, Ebinger, Germany). HLA restriction was assessed using monoclonal antibodies (10 μg/ml) specific to HLA-DP (B7/21), HLA-DQ (SPVL3), or HLA-DR (L243).
Based on the T cell epitope prediction software NetMHCpan4.0 ([23]), we selected 63 20-mer peptides that are predicted for their ability to bind promiscuously, with a percentile score below 10%, at least four HLA class II molecules from a selection of 15 preponderant HLA-DR alleles in our panel (as shown in ST1). The predicted peptides spread all along the full-length FVIII sequence and account for more than 50% of its amino acid coverage. A total of 16 healthy donors with unrelated HLA typing (ST2) were used as sources of T cells to identify FVIII-specific CD4 T cell epitopes. Specific T cell lines were generated by in vitro T cell culture using FVIII and KLH. The peptide specificity of the T cell lines raised against FVIII was assessed by two independent IFN-γ ELISPOT using peptide pools and individual peptides. All donors responded to rFVIII with a total of 409 identified rFVIII-specific T cell lines (Figure 4A). The mean of CD4 T cell precursors was 6.5 cells/M (Figure 4B). Each of the 63 FVIII peptides induced a T cell response in at least one of the donors tested, among the 16 healthy donors tested, with 872 peptide-specific T cell lines identified (Figure 4C). The CD4 T cell epitopes identified were ranked based on their donor coverage capacity (Figure 4D) and response intensity (Figure 4E). Furthermore, 18 out of 63 FVIII T cell epitopes were responsible for 50% of the total T cell response and 100% of the donor coverage. These immunoprevalent epitopes are located in the A1, A3, C1, and C2 domains of the FVIII protein (ST3). Furthermore, four independent healthy donors were used as sources of T cells to characterize the HLA restriction and to assess the reactivity of T cell lines generated with the 18 peptides toward rFVIII. T cell lines were amplified in vitro for 28 days through stimulation with the pool of 18 peptides and then tested through IFN-γ ELISPOT. All four healthy donors tested responded to the pool of 18 FVIII peptides selected, with a total of 87 specific T cell lines identified. Moreover, 16 out of 18 FVIII peptides in the pool generated a specific T cell response among the four donors. A total of 14 of the T cell peptides were tested for recognition of rFVIII-loaded on autologous DCs, and it was confirmed that they were part of the naturally processed FVIII peptides. HLA restriction was assessed by introducing anti-HLA-DR, anti-HLA-DP, and anti-HLA-DQ antibodies. None of the peptides tested was HLA-DQ restricted. Eight peptides were exclusively HLA-DR-restricted, one peptide was HLA-DP, and seven were promiscuously presented on both HLA-DR and HLA-DP molecules (ST4). […] Furthermore, the 18 FVIII peptides selected were ulteriorly tested in an in vitro binding assay to six HLA-DRB1 molecules (as described in ST5).
Four healthy donors were used as the source of CD4 T cells, which were amplified in vitro with the pool of 18 FVIII peptides selected for study. In an initial IFN-γ ELISPOT assay, we screened each of the 18 peptides individually to identify any positive T cell responses to both the full-length FVIII protein (protein specificity) as well as the specific peptide inducing the response. […]

HLA-DRB1*1501 = HLA-DRB1*1501 (Homo sapiens, UniProt P01903+P01911); assay: Peptide-MHCII competition binding assay; conditions: competition ELISA, pH 5.9, peptide 90.000nM – 0.9nM, HLA-DRB1 30 nM, biotinylated peptide 15nM, duplicate wells; ratios below 10 = good binding; reference peptide ENPVVHFFKNIVTPR
Experimental: as §1

Sequence	Ratio IC50 DRB1*0701 (HLA-DRB1*0701)	intensity (%) [1]	Responding donors (%) [1] [%]	HLA restriction (%) DP [1] [%]	HLA restriction (%) DR [1] [%]	Protein specificty [1]	Ratio IC50 DRB1*1501 (HLA-DRB1*1501)
ATRRYYLGAVELSWDYMQSD [P20-39, 20-mer FVIII peptide, A1 domain]	0.5	4,6%	50	37	63	+	–
DHLFNIAKPRPPWMGLLGPT [P75-94, 20-mer FVIII peptide, A1 domain]	1	1,1%	25	100	–	+	0.0
HPQSWVHQIALRMEVLGCEA [P2328-2347, 20-mer FVIII peptide, C2 domain]	1	1,1%	25	–	100	+	–
INGYIMDTLPGLVMAQDQRI [P1940-1959, 20-mer FVIII peptide, A3 domain]	1.1	1,1%	25	–	100	–	–
KARLHLQGRSNAWRPQVNNP [P2226-2245, 20-mer FVIII peptide, C2 domain]	0.05	12,6%	50	23	77	+	0.6
KEPFSWIKVDLLAPMIIHGI [P2084-2103, 20-mer FVIII peptide, C1 domain]	–	19,5%	100	47	53	+	–
KKEEYKMALYNLYPGVFETV [P1986-2005, 20-mer FVIII peptide, A3 domain]	0.2	1,1%	25	–	100	+	0.4
KLARLHYSGSINAWSTKEPF [P2068-2087, 20-mer FVIII peptide, C1 domain]	0.35	1,1%	25	–	100	–	20
LGQFLLFCHISSHQHDGMEA [P322-341, 20-mer FVIII peptide, A1 domain]	0.6	4,6%	50	–	100	+	0.05
LLTRYLRIHPQSWVHQIALR [P2320-2339, 20-mer FVIII peptide, C2 domain]	0.05	2,3%	25	25	75	+	0.0
LSHVDLVKDLNSGLIGALLV [P178-197, 20-mer FVIII peptide, A1 domain]	0.4	4,6%	75	50	50	+	95
PPIIARYIRLHPTHYSIRST [P2161-2180]	0.05	9,2%	75	19	81	+	0.05
RHYFIAAVERLWDYGMSSSP [P1715-1734, 20-mer FVIII peptide, A3 domain]	1	18,4%	75	–	100	+	77
SLYISQFIIMYSLDGKKWQT [P2114-2133, 20-mer FVIII peptide, C1 domain]	0.1	3,4%	50	33	66	+	4
